Biological target: T1, SHP2 protein (Homo sapiens, UniProt Q06124)
T1 sequence (Q06124 1-593): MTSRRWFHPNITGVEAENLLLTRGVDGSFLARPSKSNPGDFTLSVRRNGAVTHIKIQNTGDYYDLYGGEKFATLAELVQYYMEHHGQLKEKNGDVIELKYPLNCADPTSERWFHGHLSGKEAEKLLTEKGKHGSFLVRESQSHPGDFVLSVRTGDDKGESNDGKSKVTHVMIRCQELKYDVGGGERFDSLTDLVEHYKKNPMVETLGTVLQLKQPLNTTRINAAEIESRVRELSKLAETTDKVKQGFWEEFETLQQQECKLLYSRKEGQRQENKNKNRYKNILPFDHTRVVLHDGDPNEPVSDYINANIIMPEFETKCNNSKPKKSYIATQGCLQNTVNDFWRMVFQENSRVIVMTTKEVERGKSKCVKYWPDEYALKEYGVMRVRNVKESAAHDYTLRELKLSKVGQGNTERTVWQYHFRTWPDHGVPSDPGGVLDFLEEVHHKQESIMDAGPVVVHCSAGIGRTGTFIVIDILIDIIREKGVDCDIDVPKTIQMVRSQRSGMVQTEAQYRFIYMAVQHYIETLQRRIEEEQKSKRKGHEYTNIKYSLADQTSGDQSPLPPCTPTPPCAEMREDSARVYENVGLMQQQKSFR
Experiment: Degradation activity on SHP2 protein in MV-411 cells (Western blot, DC50)
Format: cell-based
Set-up: endogenous in cells
Settings: MV411 cells, 24 hours, read-out: Degradation activity for differenct cell lines MV411 (DC50)
Description: • MV-411 cell line (COBIER, CBP-60522) • FBS (GEMINI, Cat. No. 900-108) • 0.01M PBS (Biosharp, Cat. No. 162262) • IMDM (Hyclone, Cat. No. SH30228.01) • Penicillin-Streptomycin (Gibco, Cat. No. 15140122) • DMSO (Sigma, Cat. No. D5879) • Centrifuge Tube, 15 ml (Excell Bio, Cat. No. CS015-0001) • Cell Culture Dish, (WHB, Cat. No. CS016-0128) • 12-well cell culture cluster (Corning, Cat. No. 3513) • RIPA lysate buffer (Thermo, Cat. No. 89900) • Protein Loding Buffer (Beyotime, Cat. No. P0015L) • BCA Protein Assay Kit (EpiZyme, Cat. No. ZJ102) • SDS-PAGE Fast Preparation Kit (EpiZyme, Cat. No. PG112) • Anti-GAPDH (14C10) Rabbit mAb (CST, Cat. No. 2118L) • Anti-SHP2 rabbit mAb (CST, Cat. No. 37525) • Peroxidase Affinipure (HRP) Goat Anti-Rabbit IgG (Zen Bioscience, Cat. No. 511203) • TBST (Biosharp, Cat. No. BL601A) • ECL chemiluminescence kit (4A Biotech, Cat. No. 4AW011-200)
• (1) Cell culture medium: IMIDM medium+10% FBS+1% Pen Strep; • (2) PBS buffer: PBS powder was dissolved in 2 L of ultrapure water and sterilized; • (3) Cell lysate: RIPA lysate buffer is added with protease inhibitors at a ratio of 1:1000 before use.
(1) MV-411 cells were cultured in the cell culture medium, and then well-growing cells were selected and inoculated in a 12-well plate, with 1 mL/well and 1×10^6 cells/well. The plate was incubated overnight in a 5% CO2 cell incubator at 37° C.
(2) 10 mM storage solution of each drug was prepared using dimethylsulfoxide (DMSO). The stock solution was diluted gradually with DMSO before use, and then 1 μL of the compound solution was added to the cell culture well (to ensure that the DMSO concentration in the culture system was […]), so that the final drug concentration is 100 nM, 10 nM, 3 nM, 1 nM, 0.3 nM, and 0.1 nM. Two wells were set for each concentration. The plate was gently shaken and mixed. Additionally, negative control wells (containing an equal amount of DMSO) and positive control wells were included.
(3) After 24 hours of cultivation, the cells were lysed using RIPA cell lysate, and the proteins were extracted. The protein concentration was measured using a BCA assay kit. 5× concentrated protein buffer was loaded, heated at 100° C. for 5 min, and then the sample was stored at −20° C.
(4) For each well, 30 μg of protein was loaded to polyacrylamide gel for electrophoresis.
(5) The protein was transferred from polyacrylamide gel to PVDF membrane, and sealed at room temperature with 5% skimmed milk for 1 h, which was then incubated with the primary antibodies (Anti-SHP2 rabbit mAb and Anti-GAPDH rabbit mAb) at 4° C. overnight. The membrane was washed three times with TBST solution, 10 minutes for each time. After that, the membrane was incubated with the secondary antibodies (horseradish peroxidase labeled goat anti-rabbit IgG) at room temperature for 2 h, and then washed three times with TBST solution, 10 minutes for each time, followed by exposure.
(6) The images were analyzed with Image J grayscale, and the degradation ratio of protein bands in the test group was calculated, based on the negative control group (DMSO) (100%).
(7) Using the Dose-response-inhibition equation in the data processing software GraphPad Prism 8, the DC50 value was obtained (which represents the drug concentration corresponding to 50% degradation of the target protein).
Finally, ECL detection solution was added for color development, and photos were taken with an automatic chemiluminescence instrument, so as to collect images and analyze them.

First: Cc1ncsc1-c1ccc([C@H](C)NC(=O)[C@@H]2C[C@@H](O)CN2C(=O)[C@@H](NC(=O)CCCCCCCCCCN2CC(C(=O)Nc3cccc(Sc4cnc(N5CCC(C)(N)CC5)cn4)c3)C2)C(C)(C)C)cc1 [Compound 44]
Second: Cc1ncsc1-c1ccc([C@H](C)NC(=O)[C@@H]2C[C@@H](O)CN2C(=O)[C@@H](NC(=O)CCCCCCCCC(=O)Nc2cccc(Sc3cnc(N4CCC(C)(N)CC4)cn3)c2)C(C)(C)C)cc1 [Compound 52]
The DC50 of the first is higher: 0.1 to 1 µM for the first, less than 0.1 µM for the second.

`CC1(N)CCN(c2cnc(Sc3cccc(NC(=O)COCCOCCOCCOCC(=O)Nc4cccc5c4CN(C4CCC(=O)NC4=O)C5=O)c3)cn2)CC1` (centres unmarked) [Compound 17] and `CC1(N)CCN(c2cnc(Sc3cccc(NC(=O)CCC(=O)NCCOCCOCC(=O)Nc4cccc5c4CN(C4CCC(=O)NC4=O)C5=O)c3)cn2)CC1` (centres unmarked) [Compound 29] cannot be ordered by DC50: greater than 1 µM for the first, greater than 1 µM for the second.

Going from `CC1(N)CCN(c2cnc(Sc3cccc(NC(=O)COCCCCCN4CC5(CCN(c6ccc(C(=O)NCc7ccc8c(c7)CN(C7CCC(=O)NC7=O)C8=O)nn6)C5)C4)c3)cn2)CC1` (centres unmarked) [Compound 124] to `NC1(CF)CCN(c2cnc(Sc3cccc(NC(=O)CCCCN4CC5(CCN(c6ccc(C(=O)NCc7ccc8c(c7)CN(C7CCC(=O)NC7=O)C8=O)nn6)C5)C4)c3)cn2)CC1` (centres unmarked) [Compound 137], the DC50 rises from less than 0.1 µM to greater than 1 µM.

`CN(Cc1ccc2c(c1)CN(C1CCC(=O)NC1=O)C2=O)C(=O)c1cnc(N2CCC3(CN(CCCCCCC(=O)Nc4cccc(Sc5cnc(N6CCC(C)(N)CC6)cn5)c4)C3)C2)c(Cl)c1` (centres unmarked) [Compound 182] and `CC1(N)CCN(c2cnc(Sc3cccc(NC(=O)CCCCN4CC5(CCN(c6ncc(C(=O)NCc7ccc8c(c7)CN(C7CCC(=O)NC7=O)C8=O)cn6)C5)C4)c3)cn2)CC1` (centres unmarked) [Compound 89] cannot be ordered by DC50: less than 0.1 µM for the first, less than 0.1 µM for the second.

Compared with `NC1CCN(c2cnc(Sc3cccc(NC(=O)CCCCCCN4CC5(CCN(c6ccc(C(=O)NCc7ccc8c(c7)CN(C7CCC(=O)NC7=O)C8=O)nn6)C5)C4)c3)cn2)CC1CO` (centres unmarked) [Compound 194], `CCCCCOC(=O)NC1(C)CCN(c2cnc(Sc3cccc(NC(=O)CCCCCCN4CC5(CCN(c6ccc(C(=O)NCc7ccc8c(c7)CN(C7CCC(=O)NC7=O)C8=O)nn6)C5)C4)c3)cn2)CC1` (centres unmarked) [Compound 187] is higher in DC50: less than 0.1 µM for the first, greater than 1 µM for the second.

`CC1(N)CCN(c2cnc(Sc3cccc(NC(=O)CCCCCCCN4CC5(CCN(Cc6ccc(COc7cccc8c7CN(C7CCC(=O)NC7=O)C8=O)cc6)C5)C4)c3)cn2)CC1` (centres unmarked) [Compound 68] and `CC1(N)CCN(c2cnc(Sc3cccc(NC(=O)CCN4CC5(CCN(c6ncc(C(=O)NCc7ccc8c(c7)CN(C7CCC(=O)NC7=O)C8=O)cn6)C5)C4)c3)cn2)CC1` (centres unmarked) [Compound 65] cannot be ordered by DC50: less than 0.1 µM for the first, less than 0.1 µM for the second.

Compared with `Cc1ncsc1-c1ccc([C@H](C)NC(=O)[C@@H]2C[C@@H](O)CN2C(=O)[C@@H](NC(=O)/C=C/C(=O)N2CCC3(CN(CCCCCCC(=O)Nc4cccc(Sc5cnc(N6CCC(C)(N)CC6)cn5)c4)C3)C2)C(C)(C)C)cc1` [Compound 116], `Cc1ncsc1-c1ccc([C@H](C)NC(=O)[C@@H]2C[C@@H](O)CN2C(=O)[C@@H](NC(=O)CCCCCCCN2CC3(C2)CN(C(=O)[C@@H]2C[C@H]2C(=O)Nc2cccc(Sc4cnc(N5CCC(C)(N)CC5)cn4)c2)C3)C(C)(C)C)cc1` [Compound 39] is lower in DC50: greater than 1 µM for the first, less than 0.1 µM for the second.

`Cc1ncsc1-c1ccc([C@H](C)NC(=O)[C@@H]2C[C@@H](O)CN2C(=O)[C@@H](NC(=O)c2ccc(N3CCC4(CN(CCCCCOCC(=O)Nc5cccc(Sc6cnc(N7CCC8(CC7)CO[C@@H](C)[C@H]8N)cn6)c5)C4)C3)nn2)C(C)(C)C)cc1` [Compound 120] and `Cc1ncsc1-c1ccc([C@H](C)NC(=O)[C@@H]2C[C@@H](O)CN2C(=O)[C@@H](NC(=O)c2cnc(N3CCN(CCCC(=O)Nc4cccc(Sc5cnc(N6CCC(C)(N)CC6)cn5)c4)CC3)nc2)C(C)(C)C)cc1` [Compound 82] cannot be ordered by DC50: less than 0.1 µM for the first, less than 0.1 µM for the second.

`CC1(N)CCN(c2cnc(Sc3cccc(NC(=O)CCCCCCCOC4CCN(c5ncc(C(=O)Nc6ccc7c(c6)CN(C6CCC(=O)NC6=O)C7=O)cn5)CC4)c3)cn2)CC1` (centres unmarked) [Compound 93] showed a DC50 of less than 0.1 µM.
